Where two headings read alike, the source gives them in different places.
How the values were obtained:
Type in all cases: cell-based
[1] = target: T1, hGCGR (Homo sapiens, UniProt P47871); assay: Functional cAMP formation (HTRF) in HEK-293 clonal cells expressing hGCGR, 0.1% bovine casein, without or with 1.0% human serum albumin; conditions: 37° C., geometric mean
T1 construct: expressed in transfected cells
Procedure, shortened: (§1)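 Cells were stimulated with peptide for 30 min at 37° C, then intracellular cAMP was measured by competitive HTRF (665/620 nm ratio) and converted to nM using a cAMP standard curve. Relative EC50 and Emax came from four-parameter logistic fits of percent maximal response against peptide concentration.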

[2] = target: T2, hGIPR (Homo sapiens, UniProt P48546); assay: Functional cAMP formation (HTRF) in HEK-293 clonal cells expressing hGIPR, 0.1% bovine casein, without or with 1.0% human serum albumin; conditions: for Emax: percent of maximal response to GIP(1-42)NH2; for EC50: geometric mean
T2 construct: expressed in transfected cells
T2 sequence (P48546 22-466): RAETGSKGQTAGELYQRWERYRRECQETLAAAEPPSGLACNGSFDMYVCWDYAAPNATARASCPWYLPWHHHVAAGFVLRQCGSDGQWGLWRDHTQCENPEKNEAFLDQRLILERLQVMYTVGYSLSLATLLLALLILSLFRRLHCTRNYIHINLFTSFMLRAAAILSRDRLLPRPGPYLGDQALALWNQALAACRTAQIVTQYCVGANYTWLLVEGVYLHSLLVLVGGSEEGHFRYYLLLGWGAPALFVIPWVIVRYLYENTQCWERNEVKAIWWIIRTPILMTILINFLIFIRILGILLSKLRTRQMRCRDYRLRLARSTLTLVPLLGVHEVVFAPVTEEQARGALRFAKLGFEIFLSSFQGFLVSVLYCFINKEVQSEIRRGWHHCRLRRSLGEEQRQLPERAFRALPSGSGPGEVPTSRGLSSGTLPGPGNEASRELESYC
Procedure, shortened: as §1

[3] = target: hGLP-1R (Homo sapiens, UniProt P43220); assay: Functional cAMP formation (HTRF) in HEK-293 clonal cells expressing hGLP-1R, 0.1% bovine casein, without or with 1.0% human serum albumin; design: expressed in transfected cells; conditions: for Emax: percent of maximal response to GLP-1(7-36)NH2
Sequence of hGLP-1R (P43220 24-463): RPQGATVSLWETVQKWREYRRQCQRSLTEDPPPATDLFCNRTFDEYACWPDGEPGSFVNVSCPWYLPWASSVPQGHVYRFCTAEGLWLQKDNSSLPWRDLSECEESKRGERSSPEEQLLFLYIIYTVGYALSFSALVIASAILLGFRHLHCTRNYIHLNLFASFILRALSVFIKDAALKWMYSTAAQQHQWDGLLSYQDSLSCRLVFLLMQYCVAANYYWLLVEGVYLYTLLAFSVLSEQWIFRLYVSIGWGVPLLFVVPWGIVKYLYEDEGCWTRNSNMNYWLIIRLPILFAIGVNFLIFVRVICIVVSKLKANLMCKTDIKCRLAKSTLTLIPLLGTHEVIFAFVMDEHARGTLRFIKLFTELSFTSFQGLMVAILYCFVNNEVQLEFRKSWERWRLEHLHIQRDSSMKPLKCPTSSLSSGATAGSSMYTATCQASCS
Procedure, shortened: as §1

[4] = hGCGR EC50, nM (SEM, n), 0.1% bovine casein and 1.0% human serum albumin
[5] = hGCGR EC50, nM (SEM, n), cAMP, 0.1% bovine casein (no human serum albumin)
[6] = HEK293, read-out: hGIPR Emax, % ± SEM, 0.1% bovine casein and 1.0% human serum albumin, 37° C.
[7] = hGIPR EC50, nM (SEM, n), 0.1% bovine casein and 1.0% human serum albumin, 37° C.
[8] = hGIPR EC50, nM (SEM, n), cAMP, 37° C., 0.1% bovine casein (no human serum albumin)
[9] = HEK293, read-out: hGLP-1R Emax, % ± SEM, 0.1% bovine casein and 1.0% human serum albumin, 37° C.
[10] = HEK293, read-out: hGLP-1R Emax, % ± SEM, cAMP, 37° C., 0.1% bovine casein, arithmetic mean
[11] = HEK293, read-out: hGIPR Emax, % ± SEM, cAMP, 37° C., 0.1% bovine casein, arithmetic mean

T1 sequence (P47871 26-477): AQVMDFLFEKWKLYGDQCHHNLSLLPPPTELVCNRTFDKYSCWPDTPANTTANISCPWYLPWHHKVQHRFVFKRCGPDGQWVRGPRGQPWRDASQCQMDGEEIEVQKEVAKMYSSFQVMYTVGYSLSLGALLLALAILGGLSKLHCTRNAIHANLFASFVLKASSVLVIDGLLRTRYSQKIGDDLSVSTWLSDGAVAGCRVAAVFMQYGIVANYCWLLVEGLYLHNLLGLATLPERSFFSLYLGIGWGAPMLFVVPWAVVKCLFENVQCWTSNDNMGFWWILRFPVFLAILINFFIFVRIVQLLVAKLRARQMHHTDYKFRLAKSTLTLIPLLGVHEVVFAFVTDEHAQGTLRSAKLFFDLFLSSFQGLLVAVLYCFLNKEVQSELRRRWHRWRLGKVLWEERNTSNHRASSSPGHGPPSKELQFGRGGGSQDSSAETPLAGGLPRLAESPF

SMILES | EC50 [1, 4] [nM] | EC50 [1, 5] [nM] | Emax [2, 6] [%] | EC50 [2, 7] [nM] | EC50 [2, 8] [nM] | Emax [3, 9] [%] | EC50 ([3]; hGLP-1R EC50, nM (SEM, n), cAMP, 37° C., 0.1% bovine casein (no human serum albumin), geometric mean) [nM] | Emax [3, 10] [%] | Emax [2, 11] [%] | EC50 ([1]; 0.1% bovine casein and 1.0% human serum albumin, read-out: hGCGR EC50, nM (SEM, n)) [nM] | EC50 ([1]; cAMP, 0.1% bovine casein (no human serum albumin), read-out: hGCGR EC50, nM (SEM, n)) [nM] | Emax ([2]; HEK293, 0.1% bovine casein and 1.0% human serum albumin, 37° C., read-out: hGIPR Emax, % ± SEM) [%] | Emax ([2]; HEK293, cAMP, 37° C., 0.1% bovine casein, arithmetic mean, read-out: hGIPR Emax, % ± SEM) [%] | EC50 ([2]; cAMP, 37° C., 0.1% bovine casein (no human serum albumin), read-out: hGIPR EC50, nM (SEM, n)) [nM] | Emax ([3]; HEK293, 0.1% bovine casein and 1.0% human serum albumin, 37° C., read-out: hGLP-1R Emax, % ± SEM) [%] | Emax ([3]; HEK293, cAMP, 37° C., 0.1% bovine casein, arithmetic mean, read-out: hGLP-1R Emax, % ± SEM) [%]
CC[C@H](C)[C@H](NC(=O)[C@H](CC(C)C)NC(=O)[C@](C)(Cc1ccc(O)cc1)NC(=O)[C@@H](CCC(=O)O)NC(=O)[C@@H](NC(=O)[C@H](Cc1ccccc1)NC(=O)[C@H](CCC(=O)O)NC(=O)C(C)(C)NC(=O)[C@H](CCC(N)=O)NC(=O)[C@H](C)NC(=O)[C@H](CCCCNC(=O)COCCOCCNC(=O)COCCOCCNC(=O)CC[C@H](NC(=O)CCCCCCCCCCOc1ccc(C(=O)O)cc1)C(=O)O)NC(=O)[C@H](CCCN)NC(=O)[C@H](CC(=O)O)NC(=O)[C@H](CC(C)C)NC(=O)[C@](C)(CC(C)C)NC(=O)[C@@H](NC(=O)[C@H](CO)NC(=O)[C@H](Cc1ccncc1)NC(=O)[C@H](CC(=O)O)NC(=O)[C@H](CO)NC(=O)[C@@H](NC(=O)[C@](C)(Cc1ccccc1F)NC(=O)[C@@H](NC(=O)CNC(=O)[C@H](CCC(=O)O)NC(=O)C(C)(C)NC(=O)[C@@H](N)Cc1ccc(O)cc1)[C@@H](C)O)[C@@H](C)O)[C@@H](C)CC)[C@@H](C)CC)C(=O)N[C@@H](CCC(=O)O)C(=O)NCC(=O)NCC(=O)N1CCC[C@H]1C(=O)N[C@@H](CO)C(=O)N[C@@H](CO)C(=O)NCC(=O)N[C@@H](C)C(=O)N1CCC[C@H]1C(=O)N1CCC[C@H]1C(=O)N1CCC[C@H]1C(=O)N[C@@H](CO)C(=O)N[C@@H](CCCCNC(=O)COCCOCCNC(=O)COCCOCCNC(=O)CC[C@H](NC(=O)CCCCCCCCCCOc1ccc(C(=O)O)cc1)C(=O)O)C(N)=O [Example 285] | > 9950 | > 9950 | 84.7 | 1.28 | 0.0115 | 105 | 1.21 | – | – | – | – | – | – | – | – | –
CC[C@H](C)[C@H](NC(=O)[C@H](CCCN)NC(=O)[C@H](CC(=O)O)NC(=O)[C@H](CC(C)C)NC(=O)[C@](C)(CC(C)C)NC(=O)[C@@H](NC(=O)[C@H](CO)NC(=O)[C@H](Cc1ccncc1)NC(=O)[C@H](CC(=O)O)NC(=O)[C@H](CO)NC(=O)[C@@H](NC(=O)[C@](C)(Cc1ccccc1F)NC(=O)[C@@H](NC(=O)CNC(=O)[C@H](CCC(=O)O)NC(=O)C(C)(C)NC(=O)[C@@H](N)Cc1ccc(O)cc1)[C@@H](C)O)[C@@H](C)O)[C@@H](C)CC)C(=O)N[C@@H](C)C(=O)N[C@@H](CCC(N)=O)C(=O)NC(C)(C)C(=O)N[C@@H](CCC(=O)O)C(=O)N[C@@H](Cc1ccccc1)C(=O)N[C@H](C(=O)N[C@@H](CCCCNC(=O)COCCOCCNC(=O)COCCOCCNC(=O)CC[C@H](NC(=O)CCCCCCCCCCOc1ccc(C(=O)O)cc1)C(=O)O)C(=O)N[C@@](C)(Cc1ccc(O)cc1)C(=O)N[C@@H](CC(C)C)C(=O)N[C@H](C(=O)N[C@@H](CCCCNC(=O)COCCOCCNC(=O)COCCOCCNC(=O)CC[C@H](NC(=O)CCCCCCCCCCOc1ccc(C(=O)O)cc1)C(=O)O)C(=O)NCC(=O)NCC(=O)N1CCC[C@H]1C(=O)N[C@@H](CO)C(=O)N[C@@H](CO)C(=O)NCC(=O)N[C@@H](C)C(=O)N1CCC[C@H]1C(=O)N1CCC[C@H]1C(=O)N1CCC[C@H]1C(=O)N[C@@H](CO)C(N)=O)[C@@H](C)CC)[C@@H](C)CC [Example 286] | > 9950 | > 9950 | – | 2.18 | – | 90.3 | – | 110 | – | – | – | – | – | – | – | –
CC[C@H](C)[C@H](NC(=O)[C@H](CCCN)NC(=O)[C@H](CC(=O)O)NC(=O)[C@H](CC(C)C)NC(=O)[C@](C)(CC(C)C)NC(=O)[C@@H](NC(=O)[C@H](CO)NC(=O)[C@H](Cc1ccncc1)NC(=O)[C@H](CC(=O)O)NC(=O)[C@H](CO)NC(=O)[C@@H](NC(=O)[C@](C)(Cc1ccccc1F)NC(=O)[C@@H](NC(=O)CNC(=O)[C@H](CCC(=O)O)NC(=O)C(C)(C)NC(=O)[C@@H](N)Cc1ccc(O)cc1)[C@@H](C)O)[C@@H](C)O)[C@@H](C)CC)C(=O)N[C@@H](C)C(=O)N[C@@H](CCC(N)=O)C(=O)NC(C)(C)C(=O)N[C@@H](CCCCNC(=O)COCCOCCNC(=O)COCCOCCNC(=O)CC[C@H](NC(=O)CCCCCCCCCCOc1ccc(C(=O)O)cc1)C(=O)O)C(=O)N[C@@H](Cc1ccccc1)C(=O)N[C@H](C(=O)N[C@H](CCC(=O)O)C(=O)N[C@@](C)(Cc1ccc(O)cc1)C(=O)N[C@@H](CC(C)C)C(=O)N[C@H](C(=O)N[C@@H](CCCCNC(=O)COCCOCCNC(=O)COCCOCCNC(=O)CC[C@H](NC(=O)CCCCCCCCCCOc1ccc(C(=O)O)cc1)C(=O)O)C(=O)NCC(=O)NCC(=O)N1CCC[C@H]1C(=O)N[C@@H](CO)C(=O)N[C@@H](CO)C(=O)NCC(=O)N[C@@H](C)C(=O)N1CCC[C@H]1C(=O)N1CCC[C@H]1C(=O)N1CCC[C@H]1C(=O)N[C@@H](CO)C(N)=O)[C@@H](C)CC)[C@@H](C)CC [Example 287] | > 9950 | > 9950 | 98.9 | – | – | – | – | 97.2 | 93 | – | – | – | – | – | – | –
CC[C@H](C)[C@H](NC(=O)[C@H](CCCN)NC(=O)[C@H](CC(=O)O)NC(=O)[C@H](CC(C)C)NC(=O)[C@](C)(CC(C)C)NC(=O)[C@@H](NC(=O)[C@H](CO)NC(=O)[C@H](Cc1ccncc1)NC(=O)[C@H](CC(=O)O)NC(=O)[C@H](CO)NC(=O)[C@@H](NC(=O)[C@](C)(Cc1ccccc1F)NC(=O)[C@@H](NC(=O)CNC(=O)[C@H](CCC(=O)O)NC(=O)C(C)(C)NC(=O)[C@@H](N)Cc1ccc(O)cc1)[C@@H](C)O)[C@@H](C)O)[C@@H](C)CC)C(=O)N[C@@H](C)C(=O)N[C@@H](CCC(N)=O)C(=O)NC(C)(C)C(=O)N[C@@H](CCCCNC(=O)COCCOCCNC(=O)COCCOCCNC(=O)CC[C@H](NC(=O)CCCCCCCCCCOc1ccc(C(=O)O)cc1)C(=O)O)C(=O)N[C@@H](Cc1ccccc1)C(=O)N[C@H](C(=O)N[C@H](CCC(=O)O)C(=O)N[C@@](C)(Cc1ccc(O)cc1)C(=O)N[C@@H](CC(C)C)C(=O)N[C@H](C(=O)N[C@@H](CCC(=O)O)C(=O)NCC(=O)NCC(=O)N1CCC[C@H]1C(=O)N[C@@H](CO)C(=O)N[C@@H](CO)C(=O)NCC(=O)N[C@@H](C)C(=O)N1CCC[C@H]1C(=O)N1CCC[C@H]1C(=O)N1CCC[C@H]1C(=O)N[C@@H](CO)C(=O)N[C@@H](CCCCNC(=O)COCCOCCNC(=O)COCCOCCNC(=O)CC[C@H](NC(=O)CCCCCCCCCCOc1ccc(C(=O)O)cc1)C(=O)O)C(N)=O)[C@@H](C)CC)[C@@H](C)CC [Example 288] | > 9950 | > 9950 | 85.2 | – | 0.0219 | 123 | – | – | 110 | – | – | – | – | – | – | –
CCCCCCCCCCCC(=O)N[C@@H](CCC(=O)NCCOCCOCC(=O)NCCOCCOCC(=O)NCCCC[C@H](NC(=O)[C@H](CCCN)NC(=O)[C@H](CC(=O)O)NC(=O)[C@H](CC(C)C)NC(=O)[C@](C)(CC(C)C)NC(=O)[C@@H](NC(=O)[C@H](CO)NC(=O)[C@H](Cc1ccc(OC)cc1)NC(=O)[C@H](CC(=O)O)NC(=O)[C@H](CO)NC(=O)[C@@H](NC(=O)[C@](C)(Cc1ccccc1F)NC(=O)[C@@H](NC(=O)CNC(=O)[C@H](CCC(=O)O)NC(=O)C(C)(C)NC(=O)[C@@H](N)Cc1ccc(O)cc1)[C@@H](C)O)[C@@H](C)O)[C@@H](C)CC)C(=O)N[C@@H](C)C(=O)N[C@@H](CCC(N)=O)C(=O)NC(C)(C)C(=O)N[C@@H](CCCCNC(=O)COCCOCCNC(=O)COCCOCCNC(=O)CC[C@H](NC(=O)CCCCCCCCCCC)C(=O)O)C(=O)N[C@@H](Cc1ccccc1)C(=O)N[C@H](C(=O)N[C@H](CCC(=O)O)C(=O)N[C@@](C)(Cc1ccc(O)cc1)C(=O)N[C@@H](CC(C)C)C(=O)N[C@H](C(=O)N[C@@H](CCC(=O)O)C(=O)NCC(=O)NCC(=O)N1CCC[C@H]1C(=O)N[C@@H](CO)C(=O)N[C@@H](CO)C(=O)NCC(=O)N[C@@H](C)C(=O)N1CCC[C@H]1C(=O)N1CCC[C@H]1C(=O)N1CCC[C@H]1C(=O)N[C@@H](CO)C(N)=O)[C@@H](C)CC)[C@@H](C)CC)C(=O)O [Example 289] | – | – | – | – | – | – | – | – | – | > 9950 | > 9950 | 94.9 | 111 | 0.017 | 170 | 96.7

Source: US20230265151A1, “GIP/GLP1 CO-AGONIST COMPOUNDS” (priority 2020, published 2023)
